Reference: publication PMC11864979, “First-in-class ultralong-target-residence-time p38α inhibitors as a mitosis-targeted therapy for colorectal cancer” (Nature Cancer, 2025)
Several values for one entry are separate records, joined by “and”; a condition that tells them apart may be missing. Equal values may be shown once. Read-outs that look alike come from different tables or passages of the source.

Columns and labels:
PDO6 = assay: cell viability in patient-derived CRC organoids PDO6; assay type: cell-based, human
Procedure: (§1) For in vitro treatment studies, organoids were mechanically dissociated and digested using TrypLE supplemented with 100 µg ml^−1 DNaseI and 10.5 µM Y-27632 dihydrochloride (Invitrogen) at 37 °C. A total of 1,000–2,000 single cells were plated per well in white 96-well plates (Greiner) in culture medium containing 10% GFR Matrigel or Cultrex BME. The treatment with doxycycline (5 µg ml^−1), pharmacological inhibitors or corresponding volumes of DMSO was started 24 h after plating. Doxycycline was obtained from Sigma-Aldrich. […] Cell viability was measured by means of CellTiter-Glo 3D or CellTiter-Glo 2.0 reagent (Promega) according to the manufacturers’ instructions and the Infinite M Plex reader (Tecan, i-control version 3.9.1 software). Results were normalized to vehicle (DMSO) or to shNC. For cell-doubling assays, the cell number was quantified at the corresponding time points using Guava EasyCyte flow cytometer (Luminex, CytoSoft v5.2 software).

PDO7 = assay: cell viability in patient-derived CRC organoids PDO7; assay type: cell-based, human
Procedure: as §1

PDO9 = assay: cell viability in patient-derived CRC organoids PDO9; assay type: cell-based, human
Procedure: as §1

PDO12 = assay: cell viability in patient-derived CRC organoids PDO12; assay type: cell-based, human
Procedure: as §1

PDO13 = assay: cell viability in patient-derived CRC organoids PDO13; assay type: cell-based, human
Procedure: as §1

HCT-15 = assay: cell viability in human CRC cell line HCT-15; assay type: cell-based; conditions: 4 d
Procedure: (§2) To generate KAP^2D cells, KAP organoids were isolated from Matrigel, fragmented by mechanical dissociation and plated without any extracellular matrix on common cell culture dishes. Phoenix-Eco packaging cells (CRL-3214), HCT-15 (CCL-225), HCT 116 (CCL-247), COLO 205 (CCL-222), LS 174T (CL-188), RKO (CRL-2577) and HT-29 (HTB-38) were obtained from the American Type Culture Collection. The cells were cultured at 37 °C and 7% CO2 with RPMI (KAP^2D cells) or DMEM (other cell lines), supplemented with 10% FBS and penicillin–streptomycin. KAP^2D cells were authenticated using PCR (Kras locus and Trp53 locus). Phoenix-Eco packaging cells and HCT-15, HCT 116, COLO 205, LS 174T, RKO and HT-29 cells were authenticated by the provider using short tandem repeat profiling. No commonly misidentified cell lines were used. Mycoplasma contamination was excluded by a PCR-based analysis.
as §1

RKO = assay: cell viability in human CRC cell line RKO; assay type: cell-based; conditions: ED Fig. 9g, replicates
Procedure: as §2, §1

KAP^2D cells [1] = assay: P-H3^S10 / α-tubulin staining, mitotic phases in KAP^2D cells; assay type: cell-based, mouse; conditions: replicates, experiment and repetition
Procedure: Immunofluorescence staining on cells and organoids was performed on glass coverslips or tissue culture chambers (Sarstedt). Organoids were plated in medium containing 10% Matrigel or Cultrex BME. The cultures were fixed with 4% paraformaldehyde and stained with specific antibodies and DAPI (Vector Labs). All used antibodies and dilutions are listed in the Nature Portfolio Reporting Summary. For analyzing DNA synthesis, the Molecular Probes Click-iT EdU Alexa Fluor 555 kit was used 24 h after EdU incorporation with DAPI counterstaining. SA-β-Gal staining of cells was performed in cell culture dishes (cells) or tissue culture chambers (organoids) after fixation with 0.5% glutaraldehyde as described above. Human cultures were incubated with X-Gal solution at pH 6.0 for ~4 h. […] Positive cells were quantified using ImageJ version 1.53a software. The analysis of mitosis was performed with an LSM800 Airyscan (Zeiss) microscope (ZEN version 3.0 software). An Airyscan autofilter processing was applied before image analysis.

KAP^2D cells [2] = assay: annexin V apoptosis analysis in KAP^2D cells; assay type: cell-based, mouse; conditions: Fig. 5a
Procedure: Apoptosis was analyzed with the FITC annexin V apoptosis detection kit (Biolegend). Both measurements were performed with FACS Canto II (BD) and physical parameters were used to exclude cell debris and cell doublets.

KAP liver metastasis = assay: survival of wild-type mice with KAP liver metastasis; assay type: in vivo, mouse
Procedure: Subcutaneous injection, splenic seeding or cecum injection of organoids was performed in 8–10-week-old C57BL/6 N/Crl, Rag2^−/− (B6.Cg-Rag2^tm1.1Cgn/J), or CB17 Scid beige (CB17.Cg-Prkdc^scidLyst^bg-J/Crl) mice, obtained from Charles River. The organoids were dissociated into single cells, washed with PBS and injected in a 1:1 mixture of PBS and Matrigel. For murine organoids, 1 × 10^5 cells were injected into the left and right flanks or the spleen capsule and 2 × 10^6 cells were injected into the cecum wall. For human organoids, 4 × 10^5 cells were injected into the flanks of CB17 Scid beige mice. For splenic seeding and cecum injection, mice were anaesthetized using ketamine (100 mg kg^−1, intraperitoneally) and xylazin (10 mg/kg, intraperitoneally) in NaCl and a small laparotomy below the thorax was performed.
No mice were excluded during treatment studies.

O=C(NCCN1CCOCC1)c1ccc2c(c1)C(=O)c1ccc(Nc3ccc(F)c(NC(=O)c4ccccc4)c3)cc1CC2 [Compound 1639] was tested, and the viability at 1 µM (PDO6; Homo sapiens, 96 h, PDO6, 1 µM, 4 days, read-out: Cell viability (%)) was 88.1%, the “Cell viability (%)” value (PDO6; PDO6, 0.5 µM, 4 d, 0.5 µM) was 89.33% and 120.75% and 95.55% and the “Cell viability (%)” value (PDO6; PDO6, 1 µM, 4 days, 1 µM) was 103.21% and 96.02%. The viability at 1 µM (PDO7; Homo sapiens, 96 h, PDO7, 1 µM, 4 days, read-out: Cell viability (%)) was 103%, the “Cell viability (%)” value (PDO7; PDO7, 0.5 µM, 4 d, 0.5 µM) was 99.28% and 131.17% and 112.30% and the “Cell viability (%)” value (PDO7; PDO7, 1 µM, 4 days, 1 µM) was 115.94% and 100.13%. The viability at 1 µM (PDO9; Homo sapiens, 96 h, PDO9, 1 µM, 4 days) was 76.2%, the “Cell viability (%)” value (PDO9; PDO9, 0.5 µM, 4 d, 0.5 µM) was 87.86% and 110.04% and 106.00% and the “Cell viability (%)” value (PDO9; PDO9, 1 µM, 4 days, 1 µM) was 91.05% and 91.07%. The “Cell viability (%)” value (PDO12; PDO12, 0.5 µM, 4 d, 0.5 µM) was 74.14% and 86.52% and 99.28%, the “Cell viability (%)” value (PDO12; PDO12, 1 µM, 4 days, 1 µM) was 67.94% and 91.05% and 88.04% and the viability at 0.5 µM (PDO13; Homo sapiens, 96 h, PDO13, 0.5 µM, 4 d, read-out: Cell viability (%)) was 93.8%. For the same compound, the viability at 1 µM (PDO13; Homo sapiens, 96 h, PDO13, 1 µM, 4 days, read-out: Cell viability (%)) was 84.5%, the “Cell viability (%)” value (PDO13; PDO13, 0.5 µM, 4 d, 0.5 µM) was 111.59% and 96.20% and the “Cell viability (%)” value (PDO13; PDO13, 1 µM, 4 days, 1 µM) was 86.80% and 77.48%. The “HCT-15 Cell viability (%)” value (HCT-15; 0.0137 µM) was 92.80% and 91.50% and 85.00% and 82.22% and 80.95%, the “HCT-15 Cell viability (%)” value (HCT-15; 0.0412 µM) was 78.90% and 80.07% and 94.65% and 93.32% and 92.61% and the “HCT-15 Cell viability (%)” value (HCT-15; 0.1235 µM) was 84.07% and 87.40% and 91.28% and 90.94% and 89.46%. For the same compound, the “HCT-15 Cell viability (%)” value (HCT-15; 0.3704 µM) was 84.12% and 88.83% and 87.00% and 85.77% and 86.10%, the “HCT-15 Cell viability (%)” value (HCT-15; 1.1111 µM) was 77.30% and 80.39% and 72.06% and 72.72% and 71.41% and the “HCT-15 Cell viability (%)” value (HCT-15; 3.3333 µM) was 62.02% and 64.03% and 55.98% and 56.04% and 55.89%. For the same compound, the “HCT-15 Cell viability (%)” value (HCT-15; 10.0000 µM) was 36.90% and 37.04% and 27.63% and 27.72% and 28.84%, the viability at 0.0137 µM (HCT-15; Homo sapiens, HCT-15, 96 h, 0.0137 µM, read-out: HCT-15 Cell viability (%)) was 95.1% and the viability at 0.0412 µM (HCT-15; Homo sapiens, HCT-15, 96 h, 0.0412 µM, read-out: HCT-15 Cell viability (%)) was 77.5%. The viability at 0.1235 µM (HCT-15; Homo sapiens, HCT-15, 96 h, 0.1235 µM, read-out: HCT-15 Cell viability (%)) was 82.6%, the viability at 0.3704 µM (HCT-15; Homo sapiens, HCT-15, 96 h, 0.3704 µM, read-out: HCT-15 Cell viability (%)) was 80.4% and the viability at 1.1111 µM (HCT-15; Homo sapiens, HCT-15, 96 h, 1.1111 µM, read-out: HCT-15 Cell viability (%)) was 74%. The viability at 3.3333 µM (HCT-15; Homo sapiens, HCT-15, 96 h, 3.3333 µM, read-out: HCT-15 Cell viability (%)) was 56.5%, the viability at 10 µM (HCT-15; Homo sapiens, HCT-15, 96 h, 10.0000 µM, read-out: HCT-15 Cell viability (%)) was 36.6% and the “RKO Cell viability (%)” value (RKO; 0.0137 µM, Repetition) was 124.75% and 148.62% and 118.75%. For the same compound, the “RKO Cell viability (%)” value (RKO; 0.0137 µM, first experiment) was 98.53% and 90.98%, the “RKO Cell viability (%)” value (RKO; 0.0412 µM, Repetition) was 93.50% and 149.21% and 112.61% and the “RKO Cell viability (%)” value (RKO; 0.0412 µM, first experiment) was 86.59% and 83.94%. The “RKO Cell viability (%)” value (RKO; 0.1235 µM, Repetition) was 125.44% and 110.57%, the “RKO Cell viability (%)” value (RKO; 0.1235 µM, first experiment) was 85.12% and 86.17% and the “RKO Cell viability (%)” value (RKO; 0.3704 µM, Repetition) was 111.28% and 89.40%. The “RKO Cell viability (%)” value (RKO; 0.3704 µM, first experiment) was 77.62% and 74.11%, the “RKO Cell viability (%)” value (RKO; 1.1111 µM, Repetition) was 109.66% and 139.17% and 117.64% and the “RKO Cell viability (%)” value (RKO; 1.1111 µM, first experiment) was 95.27% and 88.88%. For the same compound, the “RKO Cell viability (%)” value (RKO; 3.3333 µM, Repetition) was 74.32% and 93.61% and 73.54%, the “RKO Cell viability (%)” value (RKO; 3.3333 µM, first experiment) was 74.12% and 74.43% and the “RKO Cell viability (%)” value (RKO; 10.0000 µM, Repetition) was 42.39% and 44.96%. For the same compound, the “RKO Cell viability (%)” value (RKO; 10.0000 µM, first experiment) was 30.57% and 37.00%, the viability at 0.0137 µM (RKO; Homo sapiens, RKO, 0.0137 µM, first experiment, read-out: RKO Cell viability (%)) was 96.7% and the viability at 0.0412 µM (RKO; Homo sapiens, RKO, 0.0412 µM, first experiment, read-out: RKO Cell viability (%)) was 88.2%. For the same compound, the viability at 0.1235 µM (RKO; Homo sapiens, RKO, 0.1235 µM, Repetition, read-out: RKO Cell viability (%)) was 111%, the viability at 0.1235 µM (RKO; Homo sapiens, RKO, 0.1235 µM, first experiment, read-out: RKO Cell viability (%)) was 82.2% and the viability at 0.3704 µM (RKO; Homo sapiens, RKO, 0.3704 µM, first experiment, read-out: RKO Cell viability (%)) was 86%. It also gave a viability at 1.1111 µM (RKO; Homo sapiens, RKO, 1.1111 µM, first experiment, read-out: RKO Cell viability (%)) of 85.9%, a viability at 3.3333 µM (RKO; Homo sapiens, RKO, 3.3333 µM, first experiment, read-out: RKO Cell viability (%)) of 75% and a viability at 10 µM (RKO; Homo sapiens, RKO, 10.0000 µM, Repetition, read-out: RKO Cell viability (%)) of 43.1%. The viability at 10 µM (RKO; Homo sapiens, RKO, 10.0000 µM, first experiment, read-out: RKO Cell viability (%)) was 31.2%, the “Anaphase, % (of fully P-H3S10+ cells)” value (KAP^2D cells [1]; Fig. 4f) was 14.94% and 12.77% and 11.59% and 15.15% and 10.11% and 8.57% and the “Metaphase, % (of fully P-H3S10+ cells)” value (KAP^2D cells [1]; Fig. 4f) was 17.24% and 21.28% and 8.70% and 19.70% and 24.72% and 20.00%. The “Multipolar mitosis, % (of fully P-H3S10+ cells)” value (KAP^2D cells [1]; Fig. 4f) was 9.20% and 12.77% and 8.70% and 9.09% and 10.11% and 8.57%, the “Telophase, % (of fully P-H3S10+ cells)” value (KAP^2D cells [1]; Fig. 4f) was 12.64% and 9.57% and 7.25% and 16.67% and 10.11% and 14.29% and the “P-H3S10+ cells, fully positive” value (KAP^2D cells [1]; Fig. 4d) was 5.80% and 5.96% and 4.15% and 4.12% and 5.10% and 3.55%. For the same compound, the “P-H3S10+ cells, partially positive” value (KAP^2D cells [1]; Fig. 4d) was 8.66% and 7.86% and 7.71% and 7.49% and 8.02% and 8.52%, the “Annexin V+ cells” value (KAP^2D cells [2]; 1 d of treatment) was 8.73% and 12.40% and 11.20% and 14.50% and 15.70% and 14.40% and the “Annexin V+ cells” value (KAP^2D cells [2]; 2 d of treatment) was 12.80% and 17.60% and 14.40% and 15.50% and 16.80% and 17.40%. For the same compound, the “Annexin V+ cells” value (KAP^2D cells [2]; 3 d of treatment) was 16.10% and 14.80% and 15.90% and 19.00% and 17.40% and 18.40%, the “Annexin V+ cells” value (KAP^2D cells [2]; 4 d of treatment) was 26.70% and 25.10% and 21.50% and 18.80% and 17.30% and 19.40% and the “survival / therapeutic efficacy in KAP liver metastasis (in words)” value (KAP liver metastasis; 20 mg kg^−1 daily, start 5 weeks after organoid inoculation) was “slight but nonsignificant survival benefit”. The Survival (KAP liver metastasis; single animals, 1 = event, 0 = censored, Fig. 6e) was 26 d of treatment and 29 d of treatment and 11 d of treatment and 12 d of treatment and 25 d of treatment and 27 d of treatment and 20 d of treatment.
